Reference: patent EP1228097B1, “ANTIMICROBIAL ACTIVITY OF THE FIRST CATIONIC CLUSTER OF HUMAN LACTOFERRIN” (priority 1999, dated 2005)

Experiments:
[1] = system: antibiotic resistant S. aureus; assay: experimental thigh muscle infection; assay type: in vivo, mice; conditions: for amount with which maximum effects on the number of viable bacteria were seen: mice infected with antibiotic resistant S. aureus, i.v. injection 24 h after infection, within 24 h after injection; for antibacterial activity in infected mice (result in words): mice with thigh muscle infection with antibiotic resistant S. aureus
Description: All animal studies were done in compliance with the LUMC Ethical Committee and Dutch laws related to the conduct of animal experiments. […] In short, specific pathogen-free, male, Swiss mice weighing 20-25 g (Broekman Institute, Someren, The Netherlands) were anaesthetized with a single intraperitoneal injection of 0.1 ml of saline containing 1 mg fluanisone and 0.03 mg fentanyl citrate (Hypnorm, Janssen Pharmaceutics, Tilburg, The Netherlands). Preceding scintigraphy, a subcutaneous injection of 0.1 ml, containing 0.2 mg diazepam (Valium, Hoffmann-La Roche, Mijdrecht. The Netherlands) was administered. Immediately thereafter, 1x10^7 CFU of antibiotic resistant S. aureus or K. pneumoniae in 0.1 ml of saline were injected into the right thigh muscle. […] As a control, mice were injected with 0.2 ml of saline containing BSA or saline without any peptide. […] Next, the infected thigh muscles were removed and, after weighing, homogenized in 4 ml of PBS. Appropriate dilutions of the homogenates were applied onto diagnostic sensitivity test plates (Oxoid), and the number of colonies counted after an overnight culture at 37 °C. Results are expressed as the number of CFUs per gram of infected tissue. All negative cultures were assigned the values of 100 CFU/ml of homogenate, which is the lower limit of detection.

[2] = pharmacology of 99mTc-labelled protein/peptides by scintigraphy (clearance, organ uptake, amount at the site of infection); assay type: in vivo, mice; conditions: for mean t1/2 (removal from the circulation): mouse, in vivo, iv; for Uptake by bladder / Uptake by kidneys / Uptake by liver: 1 nmole 99mTc-labelled, mice infected with antibiotic resistant S. aureus
Text: Labeling yields amounted to 88-95%.

L. monocytogenes = assay: in vitro assay for antibacterial activity (number of viable bacteria); assay type: cell-based, Listeria monocytogenes strain EGD; conditions: for killing of L. monocytogenes (result in words): dose-effect studies, proteins in PBS-Tw, synthetic peptides in NaPB-TSB
Description: (§1) Listeria monocytogenes strain EGD, Klebsiella pneumoniae (43816), and Escherichia coli O54 were purchased from the American Type Culture Collection (Rockville, MD). Antibiotic resistant S. aureus, K. pneumoniae and E. coli were cultured overnight in nutrient broth (Oxoid, Basingstoke, UK) at 37°C, diluted in tryptase soya broth (TSB, Oxoid) and cultured for an additional 2 h in a shaking waterbath at 37 °C. L. monocytogenes was cultured overnight in brain heart infusion broth (BHI, Oxoid) at 37°C, diluted and cultured for an additional 2 h in a shaking waterbath at 37°C.
(§2) In short, bacteria were washed with phosphate-buffered saline (PBS) (pH 7.4) and diluted to a concentration of approximately 2x10^6 CFU/ml of phosphate-buffered saline (pH 6.0) supplemented with 0.1 % (v/v) Tween-20 (hereafter designated as PBS-Tw). […] At various time intervals (range 0-4 h) after incubation at 37 °C the number of viable bacteria was determined microbiologically. As negative controls, bovine serum albumin (BSA; Sigma) or no peptide were included.

[3] = system: antibiotic resistant S. aureus; assay: as above; assay type: cell-based, Staphylococcus aureus strain 2141; conditions: for killing of antibiotic resistant S. aureus (result in words): dose-effect studies, proteins in PBS-Tw, synthetic peptides in NaPB-TSB
Description: as §1, §2

K. pneumoniae = assay: as above; assay type: cell-based, Klebsiella pneumoniae (43816); conditions: proteins in PBS-Tw, synthetic peptides in NaPB-TSB
Description: as §1, §2

E. coli = assay: as above; assay type: cell-based, Escherichia coli O54; conditions: synthetic peptides in NaPB-TSB, 1 h at 37 °C
Description: as §1
[…] […] At various time intervals (range 0-4 h) after incubation at 37 °C the number of viable bacteria was determined microbiologically. As negative controls, bovine serum albumin (BSA; Sigma) or no peptide were included.

bacteria = assay: in vitro assay for antibacterial activity, bacteria not specified; assay type: cell-based; conditions: L. monocytogenes, antibiotic resistant S. aureus, K. pneumoniae, E. coli (FIGS. 2A-2D); 7 µM, 1 h at 37 °C
Description: as §1
as §2, with “At various time intervals (range 0-4 h) after incubation at 37 °C the number of viable bacteria was determined microbiologically.” left out

| Substance | antibacterial activity in infected mice (result in words) [1] | mean t1/2 (removal from the circulation) [2] | killing of L. monocytogenes (result in words) (L. monocytogenes) | killing of antibiotic resistant S. aureus (result in words) [3] | killing of K. pneumoniae (result in words) (K. pneumoniae) | killing of E. coli by synthetic peptides (result in words) (E. coli) | bactericidal activity against the various bacteria (bacteria) | other results |
| --- | --- | --- | --- | --- | --- | --- | --- | --- |
| FQWQRNMRKVR [hLF(21-31), Mr 1,548; includes the second cationic domain, reference compound] | less effective than hLF(1-11) | ~2 min |  |  |  |  |  | amount with which maximum effects on the number of viable bacteria were seen [1]: 10 nmol |
| GRRRRSVQWCA [hLF(1-11), Mr 1,374] | much more effective than hLF(4-11) | ~9 min | considerably (p<0.05) more efficient than hLF(3-11) | considerably (p<0.05) more efficient than hLF(3-11) | killed | killed | displayed bactericidal activity | bactericidal efficiency relative to hLF(21-31) (L. monocytogenes; L. monocytogenes, FIGS. 3A-3C): at least ten times more (p<0.05) efficient than hLF(21-31); bactericidal efficiency relative to hLF(21-31) ([3]; antibiotic resistant S. aureus, FIGS. 3A-3C): at least ten times more (p<0.05) efficient than hLF(21-31); amount with which maximum effects on the number of viable bacteria were seen [1]: 0.1 nmol; Uptake by bladder ([2]; interval 1 min): 10±1.5 % ID; Uptake by kidneys ([2]; interval 1 min): 18±3.8 % ID; Uptake by liver ([2]; interval 1 min): 20±1.6 % ID; Uptake by bladder ([2]; interval 15 min): 11±7.5 % ID; Uptake by kidneys ([2]; interval 15 min): 21±9.3 % ID; Uptake by liver ([2]; interval 15 min): 20±4.9 % ID; Uptake by bladder ([2]; interval 30 min): 21±5.7 % ID; Uptake by kidneys ([2]; interval 30 min): 17±5.7 % ID; Uptake by liver ([2]; interval 30 min): 20±1.6 % ID; Uptake by bladder ([2]; interval 60 min): 22±5.6 % ID; Uptake by kidneys ([2]; interval 60 min): 14±0.4 % ID; Uptake by liver ([2]; interval 60 min): 27±0.6 % ID; amount of radiolabeled peptide at the site of infection ([2]; within the first min after injection of 1 nmole, antibiotic resistant S. aureus-infected mice): 1-1.5 % of injected dose (ID) |
| hLF(2-11): residues 2 to 11 inclusively from the N-terminal region of hLF (RRRSVQWCAV; UniProt P02788 21-30, looked up, fragment) |  |  | considerably (p<0.05) more efficient than hLF(3-11) | considerably (p<0.05) more efficient than hLF(3-11) | killed | killed | displayed bactericidal activity |  |
| hLF(3-11): synthetic fragment of hLF(1-11): residues 3-11 of hLF (RRSVQWCAV; UniProt P02788 22-30, looked up, fragment) |  |  | significantly (p<0.05) more efficient than hLF(4-11) | significantly (p<0.05) more efficient than hLF(4-11) | killed | killed | displayed bactericidal activity |  |
| hLF(4-11): synthetic fragment of hLF(1-11): residues 4-11 of hLF (RSVQWCAV; UniProt P02788 23-30, looked up, fragment) | some antibacterial activity | approximately 1 min |  |  |  |  | displayed bactericidal activity |  |
| hLF(5-11): synthetic fragment of hLF(1-11): residues 5-11 of hLF (SVQWCAV; UniProt P02788 24-30, looked up, fragment) |  |  |  |  |  |  | ineffective |  |
| hLF(6-11): synthetic fragment of hLF(1-11): residues 6-11 of hLF (VQWCAV; UniProt P02788 25-30, looked up, fragment) |  |  |  |  |  |  | ineffective |  |
